≈ marks a conversion by molar mass, not a printed value.
Assay: Solubility of compound (B) in water at 20°C (10.0 g sample in 100 mL ion-exchange water, undissolved or recrystallized sample weighed)
Format: physicochemical
Details: stirred at 80°C for one hour, cooled to 20°C, more than 10.0 g/100 mL if completely dissolved
Experimental: The method for measuring this solubility is as follows.
First, 10.0 g of a sample to be measured is added to 100 mL of ion-exchange water, and the resulting mixture is stirred at 80°C for one hour to dissolve the sample. Next, the resulting solution in which the sample is dissolved is cooled to 20°C. The sample that remains without being dissolved or is recrystallized is collected, and the weight thereof is determined. […] Crosslinking Agent

| Compound | solubility thermodynamic at 1 h [mg/mL] | Solubility in water at 20°C [g/100 mL] |
| --- | --- | --- |
| O=C(O)c1cc(C(=O)O)c(C(=O)O)cc1C(=O)O [Pyromellitic acid, pyromellitic acid] | 15 (≈ 59 mM) | – |
| NC(=O)/C=C/C(N)=O [Fumaramide, fumaramide] | – | 0.2 |
| O=C(O)c1ccc(C(=O)O)c(C(=O)O)c1 [Trimellitic acid, trimellitic acid] | – | 2.0 |
| CC(=O)[O-].CC(=O)[O-].[O-2].[Zr+4] [ZrO(C2H3O2)2, reference compound] | – | >10 |
| O=C(O)c1cccc(C(=O)O)c1C(=O)O [Hemimellitic acid, hemimellitic acid] | – | 2.0 |
| O=C(O)/C=C/C(=O)O [Fumaric acid, fumaric acid] | – | 0.5 |
| [Cl-].[Cl-].[O]=[Zr+2] [ZrOCl2, reference compound] | – | >10 |
| NC(=O)c1cc(C(N)=O)cc(C(N)=O)c1 [Trimesamide, trimesamide] | – | 0.2 |
| O=C(O)c1cc(C(=O)O)cc(C(=O)O)c1 [Trimesic acid, trimesic acid] | – | 0.5 |
| Oc1ccc(O)c(O)c1 [1,2,4-Trihydroxybenzene, 1,2,4-trihydroxybenzene, reference compound] | > 100 | – |
| O=C(O)c1cc(O)c(O)c(O)c1 [Gallic acid, gallic acid] | – | 1.0 |
| O=C(O)/C=C\C(=O)O [Maleic acid, maleic acid, reference compound] | – | >10.0 |

Source: patent publication EP3578378B1, “RECORDING MEDIUM AND METHOD FOR PRODUCING RECORDING MEDIUM” (CANON KABUSHIKI KAISHA, priority 2018, dated 2019)
